From patent publication EP0438519B1, “THERAPEUTIC PEPTIDES” (The Administrators of The Tulane Educational Fund, priority 1988, dated 1998) come the findings set out here.

This experiment deals with bombesin-stimulated amylase secretion. Put plainly: Bombesin-stimulated pancreatic amylase secretion in the rat. It is filed as in vivo.

As to D-Phe^6BN(6-13)methylester [I00008], the “duration of inhibition of the secretion of amylase” value (5 nM of the analog, stimulated by 0.5 nM of bombesin, after bolus injection) is 150 min. Also, the “effect on bombesin-stimulated amylase secretion” value (result in words (Fig. 3)) is “potent antagonist”.
